Results from ChEMBL document CHEMBL3868599, “Strategy for designing selective α-l-rhamnosidase inhibitors: Synthesis and biological evaluation of l-DMDP cyclic isothioureas” (Bioorg Med Chem, 2017).

What was measured:
Penicillium decumbens [1] = assay: Inhibition of Penicillium decumbens alpha-L-rhamnosidase at 750 uM relative to control
Coffea = assay: Inhibition of coffee bean alpha-galactosidase at 1000 uM using p-nitrophenyl-glycoside as substrate by spectrophotometric method
[2] = target: T1, Alpha-mannosidase (Canavalia ensiformis) (UniProt C0HJB3); assay: Inhibition of Jack bean alpha-mannosidase at 1000 uM preincubated for 45 mins followed by addition of p-nitrophenyl-glycoside as substrate measured after 30 mins by fluorescence spectrophometry
T1 sequence (whole entry): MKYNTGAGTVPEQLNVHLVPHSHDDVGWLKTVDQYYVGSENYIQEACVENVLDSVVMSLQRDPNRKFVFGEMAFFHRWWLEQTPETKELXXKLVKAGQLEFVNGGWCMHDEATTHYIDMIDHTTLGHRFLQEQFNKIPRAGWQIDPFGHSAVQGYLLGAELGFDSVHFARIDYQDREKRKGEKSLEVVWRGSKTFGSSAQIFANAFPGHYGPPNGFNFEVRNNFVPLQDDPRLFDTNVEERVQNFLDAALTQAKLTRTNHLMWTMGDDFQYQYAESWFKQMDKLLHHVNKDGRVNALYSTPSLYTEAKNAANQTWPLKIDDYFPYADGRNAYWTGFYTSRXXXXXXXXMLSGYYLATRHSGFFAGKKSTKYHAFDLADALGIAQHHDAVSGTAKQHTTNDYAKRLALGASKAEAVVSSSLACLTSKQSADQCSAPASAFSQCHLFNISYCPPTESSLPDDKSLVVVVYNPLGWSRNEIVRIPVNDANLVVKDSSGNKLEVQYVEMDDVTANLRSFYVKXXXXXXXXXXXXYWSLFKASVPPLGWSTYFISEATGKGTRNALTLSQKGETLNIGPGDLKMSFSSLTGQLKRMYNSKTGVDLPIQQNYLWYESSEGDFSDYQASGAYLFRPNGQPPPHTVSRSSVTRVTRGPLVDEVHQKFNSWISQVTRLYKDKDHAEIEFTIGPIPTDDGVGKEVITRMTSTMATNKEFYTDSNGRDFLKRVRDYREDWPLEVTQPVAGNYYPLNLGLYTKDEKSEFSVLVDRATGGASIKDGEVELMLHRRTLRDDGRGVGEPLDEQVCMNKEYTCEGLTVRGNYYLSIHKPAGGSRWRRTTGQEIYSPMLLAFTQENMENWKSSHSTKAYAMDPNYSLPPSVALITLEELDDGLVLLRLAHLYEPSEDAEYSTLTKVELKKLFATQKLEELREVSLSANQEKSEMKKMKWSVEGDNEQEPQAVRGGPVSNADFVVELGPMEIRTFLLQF

Penicillium decumbens [3] = assay: Inhibition of Penicillium decumbens alpha-L-rhamnosidase at 1000 uM using p-nitrophenyl-glycoside as substrate by spectrophotometric method
Homo sapiens = organism: Homo sapiens; assay: Inhibition of human lysosomal beta-glucosidase at 1000 uM using 4-methylumbelliferyl-beta-D-glucopyranoside as substrate preincubated for 45 mins followed by substrate addition measured after 30 mins by fluorescence spectrophotometric method
[4] = Inhibition of Aspergillus niger amyloglucosidase assessed as D-glucose level using maltose as substrate measured after 10 to 30 mins
[5] = Inhibition of bovine liver beta-glucosidase using p-nitrophenyl-glycoside as substrate by spectrophotometric method; design: species or system Bos taurus
[6] = Inhibition of Helix pomatia beta-mannosidase using p-nitrophenyl-glycoside as substrate by spectrophotometric method
Escherichia coli = assay: Inhibition of Escherichia coli beta-galactosidase at 1000 uM using p-nitrophenyl-glycoside as substrate by spectrophotometric method
[7] = Inhibition of yeast alpha-glucosidase using p-nitrophenyl-glycoside as substrate by spectrophotometric method; design: species or system Saccharomyces cerevisiae
[8] = Inhibition of almond beta-glucosidase using p-nitrophenyl-glycoside as substrate by spectrophotometric method; design: species or system Prunus dulcis
Penicillium decumbens [9] = assay: Inhibition of Penicillium decumbens alpha-L-rhamnosidase at 1000 uM relative to control

Compound: C[C@@H]1NC[C@H](O)[C@H](O)[C@H]1O
- inhibition (Penicillium decumbens [1]): < 50%

Compound: OC[C@H]1N[C@H](CO)[C@@H](O)[C@@H]1O
- inhibition (Coffea): < 50%
- inhibition [2]: < 50%
- inhibition (Penicillium decumbens [3]): < 50%
- inhibition (Homo sapiens): < 50%
- IC50 [4]: 116 µM
- IC50 [5]: 9.7 µM
- IC50 [6]: 721 µM
- inhibition (Escherichia coli): < 50%
- IC50 [7]: 7.8 µM
- IC50 [8]: 10 µM

Compound: OC[C@@H]1NC[C@H](O)[C@@H]1O
- inhibition (Penicillium decumbens [9]): < 50%
